≈ marks a conversion by molar mass, not a printed value.
Experiments:
Pseudomonas aeruginosa = experiment: Antimicrobial Spectrum, zones of inhibition; format: cell-based; settings: 10 μg/disk, 6.35-mm disk
Bacillus subtilis syn = experiment: Antimicrobial Spectrum, zones of inhibition; format: cell-based; settings: 10 μg/disk, 6.35-mm disk
Staphylococcus aureus = experiment: Antimicrobial Spectrum, zones of inhibition; format: cell-based; settings: 10 μg/disk, 6.35-mm disk
DNA = experiment: biomedical induction assay (BIA), an assay for DNA interaction
Escherichia coli = experiment: Antimicrobial Spectrum, zones of inhibition; format: cell-based; settings: 10 μg/disk, 6.35-mm disk
CV-1 cells = experiment: Cytotoxic activity vs. CV-1 cells (disk zones of inhibition); format: cell-based; settings: Cercopithecidae, read-out: Zones of Inhibition; for zone of inhibition at 0.05 µg/disc: 50 ng/6.35-mm disk; for zone of inhibition at 0.1 µg/disc: 100 ng/6.35-mm disk; for zone of inhibition at 0.2 µg/disc: 200 ng/6.35-mm disk; for zone of inhibition at 0.4 µg/disc: 400 ng/6.35-mm disk; for zone of inhibition at 0.8 µg/disc: 800 ng/6.35-mm disk; for zone of inhibition at 1.6 µg/disc: 1600 ng/6.35-mm disk
Description: (§1) The antimicrobial activities (vs. M. luteus) and the cytotoxic activities (vs. CV-1 cells) of the ecteinascidins and ecteinascidin 743 derivatives are shown in Table 1 and 2. […] All of the derivatives of ecteinascidin 743 that were prepared have antimicrobial and cytotoxic activities.

Saccharomyces cerevisiae = experiment: Antimicrobial Spectrum, zones of inhibition; format: cell-based; settings: 10 μg/disk, 6.35-mm disk
Klebsiella pneumoniae = experiment: Antimicrobial Spectrum, zones of inhibition; format: cell-based; settings: 10 μg/disk, 6.35-mm disk
Bacillus subtilis = experiment: Antimicrobial Spectrum, zones of inhibition; format: cell-based; settings: 10 μg/disk, 6.35-mm disk
Sarcina lutea sens. = experiment: Antimicrobial Spectrum, zones of inhibition; format: cell-based; settings: Micrococcus luteus; 10 μg/disk; 6.35-mm disk
P388 leukemia = experiment: In vivo P388 mouse leukemia test; settings: for T/C (%): Table 4; for T/C: Example 6; for antitumor activity (in words): mouse, in vivo
Excerpt: Compounds of this invention are also active in vivo against P388 leukemia in mice. The P388 mouse leukemia test is described in detail in a publication by G. L. Neil et al., Cancer Treatment Reports, 63: 1971-1978 (1979).

Mycobacterium avium = experiment: Antimicrobial Spectrum, zones of inhibition; format: cell-based; settings: 10 μg/disk, 6.35-mm disk
Sarcina lutea = experiment: Antimicrobial Spectrum, zones of inhibition; format: cell-based; settings: Micrococcus luteus; 10 μg/disk; 6.35-mm disk
Penicillium oxalicum = experiment: Antimicrobial Spectrum, zones of inhibition; format: cell-based; settings: 10 μg/disk, 6.35-mm disk
M. luteus = experiment: Antimicrobial activity vs. M. luteus (disk zones of inhibition); format: cell-based; settings: for zone of inhibition at 0.05 µg/disc / zone of inhibition at 0.1 µg/disc / zone of inhibition at 0.2 µg/disc / zone of inhibition at 0.4 µg/disc / zone of inhibition at 0.8 µg/disc / zone of inhibition at 1.6 µg/disc: Micrococcus luteus; for zone of inhibition at 0.05 µg/disc: 50 ng/6.35-mm disk; for zone of inhibition at 0.1 µg/disc: 100 ng/6.35-mm disk; for zone of inhibition at 0.2 µg/disc: 200 ng/6.35-mm disk; for zone of inhibition at 0.4 µg/disc: 400 ng/6.35-mm disk; for zone of inhibition at 0.8 µg/disc: 800 ng/6.35-mm disk; for zone of inhibition at 1.6 µg/disc: 1600 ng/6.35-mm disk; for antimicrobial activity (in words): dilutions accurate to within a factor of 2
Description: as §1

[1] = system: L1210 mouse leukemia cells; experiment: L1210 Tube Dilution Assay; format: cell-based
Excerpt: The L1210 tube dilution assay is described in detail in a publication by L. H. Li, et al., Cancer Research, 39:4816 (1979). ID50 and ID90 refer to the concentration of ecteinascidin needed to inhibit cell growth by […], respectively.

bacteria = experiment: Antibacterial Activity (disk zone of inhibition, Example 4); format: cell-based
Excerpt: | Zone of inhibition (mm)

B16 Melanoma = experiment: Antitumor activity vs. B16 Melanoma; format: in vivo; settings: 0.01 mg/kg; Table 5

Q: What does the source list for COc1cc2c(cc1O)CCN[C@]21CS[C@@H]2c3c(OC(C)=O)c(C)c4c(c3[C@H](COC1=O)N1[C@@H]2[C@H]2c3c(cc(C)c(OC)c3O)C[C@@H]([C@@H]1O)N2C)OCO4 [Ecteinascidin 743]?
A: zone of inhibition at 10 µg/disc (Pseudomonas aeruginosa): 0 mm; zone of inhibition at 10 µg/disc (Bacillus subtilis syn): 26 mm; zone of inhibition at 10 µg/disc (Staphylococcus aureus): 19 mm; result in biomedical induction assay (BIA) (DNA): negative; zone of inhibition at 10 µg/disc (Escherichia coli): 11 mm; zone of inhibition at 0.05 µg/disc (CV-1 cells): 14 mm; zone of inhibition at 0.1 µg/disc (CV-1 cells): 16 mm; zone of inhibition at 0.2 µg/disc (CV-1 cells): 20 mm; zone of inhibition at 0.4 µg/disc (CV-1 cells): 23 mm; zone of inhibition at 0.8 µg/disc (CV-1 cells): 23 mm; zone of inhibition at 1.6 µg/disc (CV-1 cells): 28 mm; zone of inhibition at 10 µg/disc (Saccharomyces cerevisiae): 0 mm; zone of inhibition at 10 µg/disc (Klebsiella pneumoniae): 20 mm; zone of inhibition at 10 µg/disc (Bacillus subtilis): 25 mm; zone of inhibition at 10 µg/disc (Sarcina lutea sens.): 35 mm; T/C (%) (P388 leukemia; 0.015 mg/kg): 167%; T/C (P388 leukemia; 0.031 mg/kg): 161; T/C (P388 leukemia; 0.063 mg/kg): toxic; zone of inhibition at 10 µg/disc (Mycobacterium avium): 17 mm; zone of inhibition at 10 µg/disc (Sarcina lutea): 27 mm; zone of inhibition at 10 µg/disc (Penicillium oxalicum): 10 mm; zone of inhibition at 0.05 µg/disc (M. luteus): 9 mm; zone of inhibition at 0.1 µg/disc (M. luteus): 12 mm; zone of inhibition at 0.2 µg/disc (M. luteus): 13 mm; zone of inhibition at 0.4 µg/disc (M. luteus): 14 mm; zone of inhibition at 0.8 µg/disc (M. luteus): 20 mm; zone of inhibition at 1.6 µg/disc (M. luteus): 23 mm; antimicrobial activity (in words) (M. luteus): approximately equivalent and represent the most potent compounds in the series; IC90 ([1]; L1210, concentration needed to inhibit cell growth by 90 percent, in vitro, read-out: ID90 (the source's name)): 1.7 ng/mL (≈ 2.23 nM); IC50 ([1]; L1210, read-out: ID50): 0.5 ng/mL (≈ 0.656 nM); Zone of inhibition (bacteria; 0.005 μg/disk): trace; zone of inhibition at 0.01 µg/disc (bacteria; 0.01 μg/disk): 7 mm; zone of inhibition at 0.02 µg/disc (bacteria; 0.02 μg/disk): 9 mm; zone of inhibition at 0.05 µg/disc (bacteria; 0.05 μg/disk): 12 mm; zone of inhibition at 0.1 µg/disc (bacteria; 0.1 μg/disk): 14 mm; zone of inhibition at 0.2 µg/disc (bacteria; 0.2 μg/disk): 17 mm

Q: What does the source list for COc1cc2c(cc1O)CCN[C@]21CS[C@@H]2c3c(OC(C)=O)c(C)c4c(c3[C@H](COC1=O)N1[C@@H]2[C@@H]2N[C@@H](Cc3cc(C)c(OC)c(O)c32)[C@@H]1O)OCO4 [Ecteinascidin 729]?
A: zone of inhibition at 0.05 µg/disc (CV-1 cells): 9 mm; zone of inhibition at 0.1 µg/disc (CV-1 cells): 10 mm; zone of inhibition at 0.2 µg/disc (CV-1 cells): 10 mm; zone of inhibition at 0.4 µg/disc (CV-1 cells): 13 mm; zone of inhibition at 0.8 µg/disc (CV-1 cells): 16 mm; zone of inhibition at 1.6 µg/disc (CV-1 cells): 18 mm; T/C (%) (P388 leukemia; 0.0038 mg/kg): 214%; antitumor activity (in words) (P388 leukemia): strong antitumor activity; antitumor activity (in words) (P388 leukemia; listed as Et 729): the most active antitumor agent; zone of inhibition at 0.05 µg/disc (M. luteus): 7 mm; zone of inhibition at 0.1 µg/disc (M. luteus): 8 mm; zone of inhibition at 0.2 µg/disc (M. luteus): 11 mm; zone of inhibition at 0.4 µg/disc (M. luteus): 15 mm; zone of inhibition at 0.8 µg/disc (M. luteus): 16 mm; zone of inhibition at 1.6 µg/disc (M. luteus): 18 mm; antimicrobial activity (in words) (M. luteus): approximately equivalent and represent the most potent compounds in the series; T/C (%) (B16 Melanoma): 246%; zone of inhibition at 0.063 µg/disc (bacteria; 0.063 μg/disk): 19 mm; zone of inhibition at 0.125 µg/disc (bacteria; 0.125 μg/disk): 20 mm; zone of inhibition at 0.25 µg/disc (bacteria; 0.250 μg/disk): 22 mm

— patent US5089273A, “Ecteinascidins 729, 743, 745, 759A, 759B and 770” (priority 1990, dated 1992)
